In patent US20250147039A1, “Compounds for complexation of rare earth elements and/or s-, p-, d- block metals, their coordination compounds, peptide conjugates, method of their preparation and use thereof” (USTAV ORGANICKE CHEMIE A BIOCHEMIE AV CR V.V.I., priority 2021, published 2025):

How the values were obtained:
[1] = Formation of 1,5-cz-[M(Lig)] from Lig and M^III ions (metal dependent click-zip) (Charts 4, 5); assay type: physicochemical; settings: MOPS/NaOH buffer pH 7.0, TD728, TD827 in 50% i-PrOH; for conversion to 1,5-cz-[M(Lig)], Y^III: TD714 sum of two diastereoisomers
[2] = Formation of 1,5-cz-[Ln(Lig)] from Lig and Ln^III ions (metal dependent click-zip), MOPS/NaOH buffer pH 7.0, analytical HPLC (Charts 1, 2); settings: MOPS/NaOH buffer pH 7.0

| Compound | conversion to 1,5-cz-[M(Lig)], Sc^III ([1]; 1 week at 80° C.) [%] | conversion to 1,5-cz-[M(Lig)], Y^III ([1]; 1 week at 80° C.) [%] | conversion to 1,5-cz-[M(Lig)], Sc^III ([1]; 1 hour at 80° C.) [%] | conversion to 1,5-cz-[M(Lig)], Y^III ([1]; 1 hour at 80° C.) [%] | conversion to 1,5-cz-[Ln(Lig)], Ce^III ([2]; after 1 week at 80° C.) [%] | conversion to 1,5-cz-[Ln(Lig)], Ce^III ([2]; after 1 hour at 80° C.) [%] | conversion to 1,5-cz-[Ln(Lig)], Dy^III ([2]; after 1 week at 80° C.) [%] | conversion to 1,5-cz-[Ln(Lig)], Dy^III ([2]; after 1 hour at 80° C.) [%] | conversion to 1,5-cz-[Ln(Lig)], Er^III ([2]; after 1 week at 80° C.) [%] | conversion to 1,5-cz-[Ln(Lig)], Er^III ([2]; after 1 hour at 80° C.) [%] | conversion to 1,5-cz-[Ln(Lig)], Eu^III ([2]; after 1 week at 80° C.) [%] | conversion to 1,5-cz-[Ln(Lig)], Eu^III ([2]; after 1 hour at 80° C.) [%] | conversion to 1,5-cz-[Ln(Lig)], Gd^III ([2]; after 1 week at 80° C.) [%] | conversion to 1,5-cz-[Ln(Lig)], Gd^III ([2]; after 1 hour at 80° C.) [%] | conversion to 1,5-cz-[Ln(Lig)], Ho^III ([2]; after 1 week at 80° C.) [%] | conversion to 1,5-cz-[Ln(Lig)], Ho^III ([2]; after 1 hour at 80° C.) [%] | conversion to 1,5-cz-[Ln(Lig)], La^III ([2]; after 1 week at 80° C.) [%] | conversion to 1,5-cz-[Ln(Lig)], La^III ([2]; after 1 hour at 80° C.) [%] | conversion to 1,5-cz-[Ln(Lig)], Lu^III ([2]; after 1 week at 80° C.) [%] | conversion to 1,5-cz-[Ln(Lig)], Lu^III ([2]; after 1 hour at 80° C.) [%] | also measured |
| --- | --- | --- | --- | --- | --- | --- | --- | --- | --- | --- | --- | --- | --- | --- | --- | --- | --- | --- | --- | --- | --- |
| C#Cc1cccc(CN2CCN(CC(=O)O)CCN(Cc3cc(C(F)(F)F)cc(CN=[N+]=[N-])n3)CCN(CC(=O)O)CC2)n1 [TD1063] | 8 | 91 | 1 | 20 | 1 | 1 | 86 | 15 | 93 | 33 | 73 | 4 | 74 | 5 | 90 | 22 | 5 | 0 | 95 | 54 | conversion to 1,5-cz-[Ln(Lig)], Nd^III ([2]; after 1 week at 80° C.): 52%; conversion to 1,5-cz-[Ln(Lig)], Nd^III ([2]; after 1 hour at 80° C.): 2%; conversion to 1,5-cz-[Ln(Lig)], Pr^III ([2]; after 1 week at 80° C.): 35%; conversion to 1,5-cz-[Ln(Lig)], Pr^III ([2]; after 1 hour at 80° C.): 1%; conversion to 1,5-cz-[Ln(Lig)], Sm^III ([2]; after 1 week at 80° C.): 57%; conversion to 1,5-cz-[Ln(Lig)], Sm^III ([2]; after 1 hour at 80° C.): 3%; conversion to 1,5-cz-[Ln(Lig)], Tb^III ([2]; after 1 week at 80° C.): 83%; conversion to 1,5-cz-[Ln(Lig)], Tb^III ([2]; after 1 hour at 80° C.): 10%; conversion to 1,5-cz-[Ln(Lig)], Tm^III ([2]; after 1 week at 80° C.): 93%; conversion to 1,5-cz-[Ln(Lig)], Tm^III ([2]; after 1 hour at 80° C.): 45%; conversion to 1,5-cz-[Ln(Lig)], Yb^III ([2]; after 1 week at 80° C.): 95%; conversion to 1,5-cz-[Ln(Lig)], Yb^III ([2]; after 1 hour at 80° C.): 53% |
| C#Cc1cccc(CN2CCN(CC(=O)NCC(=O)O)CCN(Cc3cc(-c4ccccc4)cc(CN=[N+]=[N-])n3)CCN(CC(=O)NCC(=O)O)CC2)n1 [TD778] | 0 | 27 | 0 | 17 | 0 | 20 | 18 | 13 | 32 | 25 | 3 | 4 | 11 | 4 | 30 | 17 | 0 | 24 | 34 | 26 | conversion to 1,5-cz-[Ln(Lig)], Nd^III ([2]; after 1 week at 80° C.): 0%; conversion to 1,5-cz-[Ln(Lig)], Nd^III ([2]; after 1 hour at 80° C.): 9%; conversion to 1,5-cz-[Ln(Lig)], Pr^III ([2]; after 1 week at 80° C.): 0%; conversion to 1,5-cz-[Ln(Lig)], Pr^III ([2]; after 1 hour at 80° C.): 13%; conversion to 1,5-cz-[Ln(Lig)], Sm^III ([2]; after 1 week at 80° C.): 1%; conversion to 1,5-cz-[Ln(Lig)], Sm^III ([2]; after 1 hour at 80° C.): 4%; conversion to 1,5-cz-[Ln(Lig)], Tb^III ([2]; after 1 week at 80° C.): 15%; conversion to 1,5-cz-[Ln(Lig)], Tb^III ([2]; after 1 hour at 80° C.): 9%; conversion to 1,5-cz-[Ln(Lig)], Tm^III ([2]; after 1 week at 80° C.): 31%; conversion to 1,5-cz-[Ln(Lig)], Tm^III ([2]; after 1 hour at 80° C.): 31%; conversion to 1,5-cz-[Ln(Lig)], Yb^III ([2]; after 1 week at 80° C.): 27%; conversion to 1,5-cz-[Ln(Lig)], Yb^III ([2]; after 1 hour at 80° C.): 30% |
| C#Cc1cccc(CN2CCN(CC(N)=O)CCN(Cc3cc(-c4ccccc4)cc(CN=[N+]=[N-])n3)CCN(CC(N)=O)CC2)n1 [TD779] | 0 | 0 | 0 | 4 | 0 | 0 | 0 | 8 | 0 | 12 | 0 | 2 | 0 | 3 | 0 | 10 | 0 | 0 | 0 | 5 | conversion to 1,5-cz-[Ln(Lig)], Nd^III ([2]; after 1 week at 80° C.): 0%; conversion to 1,5-cz-[Ln(Lig)], Nd^III ([2]; after 1 hour at 80° C.): 0%; conversion to 1,5-cz-[Ln(Lig)], Pr^III ([2]; after 1 week at 80° C.): 0%; conversion to 1,5-cz-[Ln(Lig)], Pr^III ([2]; after 1 hour at 80° C.): 0%; conversion to 1,5-cz-[Ln(Lig)], Sm^III ([2]; after 1 week at 80° C.): 0%; conversion to 1,5-cz-[Ln(Lig)], Sm^III ([2]; after 1 hour at 80° C.): 1%; conversion to 1,5-cz-[Ln(Lig)], Tb^III ([2]; after 1 week at 80° C.): 0%; conversion to 1,5-cz-[Ln(Lig)], Tb^III ([2]; after 1 hour at 80° C.): 6%; conversion to 1,5-cz-[Ln(Lig)], Tm^III ([2]; after 1 week at 80° C.): 0%; conversion to 1,5-cz-[Ln(Lig)], Tm^III ([2]; after 1 hour at 80° C.): 9%; conversion to 1,5-cz-[Ln(Lig)], Yb^III ([2]; after 1 week at 80° C.): 0%; conversion to 1,5-cz-[Ln(Lig)], Yb^III ([2]; after 1 hour at 80° C.): 9% |
| [N-]=[N+]=NCc1cccc(CN2CCN(CC(=O)O)CCN(Cc3cccc(C#CC45CC6CC(CC(C6)C4)C5)n3)CCN(CC(=O)O)CC2)n1 [TD992] | 2 | 87 | 0 | 2 | 20 | 0 | 81 | 1 | 95 | 2 | 59 | 1 | 61 | 1 | 89 | 2 | 22 | 0 | 99 | 6 | conversion to 1,5-cz-[Ln(Lig)], Nd^III ([2]; after 1 week at 80° C.): 40%; conversion to 1,5-cz-[Ln(Lig)], Nd^III ([2]; after 1 hour at 80° C.): 0%; conversion to 1,5-cz-[Ln(Lig)], Pr^III ([2]; after 1 week at 80° C.): 33%; conversion to 1,5-cz-[Ln(Lig)], Pr^III ([2]; after 1 hour at 80° C.): 0%; conversion to 1,5-cz-[Ln(Lig)], Sm^III ([2]; after 1 week at 80° C.): 55%; conversion to 1,5-cz-[Ln(Lig)], Sm^III ([2]; after 1 hour at 80° C.): 1%; conversion to 1,5-cz-[Ln(Lig)], Tb^III ([2]; after 1 week at 80° C.): 73%; conversion to 1,5-cz-[Ln(Lig)], Tb^III ([2]; after 1 hour at 80° C.): 1%; conversion to 1,5-cz-[Ln(Lig)], Tm^III ([2]; after 1 week at 80° C.): 98%; conversion to 1,5-cz-[Ln(Lig)], Tm^III ([2]; after 1 hour at 80° C.): 4%; conversion to 1,5-cz-[Ln(Lig)], Yb^III ([2]; after 1 week at 80° C.): 99%; conversion to 1,5-cz-[Ln(Lig)], Yb^III ([2]; after 1 hour at 80° C.): 5% |
